Measurements from US7923243B2, “Stress-responsive induction of a therapeutic agent and methods of use” (University of Southern California, priority 1999, dated 2011).

Tested on: B/C10ME fibrosarcoma
Experiment: Tumor formation and GCV treatment, B/C10ME fibrosarcoma in BALB/c mice
Assay type: in vivo
Details: 2×10^7 cells s.c.; GCV 100 mg/kg daily from day 21, tumor diameter about 2 cm
Protocol: Tumor Formation. Confluent cultures of B/C10ME clones were harvested with trypsin-EDTA (Gibco/BRL) and washed three times in PBS. Approximately 2×10^7 viable cells were resuspended in […] of PBS. Six- to eight-week-old BALB/c mice obtained from Jackson Laboratory were subcutaneously injected with an 18-gauge needle in their right flank. Tumors were palpable within 12 days of inoculation and bi-perpendicular measurements were taken of the progressively growing tumor daily. Tumor growth was monitored by measurement of the larger and smaller diameters. At the indicated times post-injection, mice were injected with GCV daily at a dosage of 100 mg/kg of body weight for about 10 days. Tumors were judged to have regressed after losing both measurability and palpability. For each retroviral construct, multiple injections of 2 to 3 independently derived transduced clonal cell lines were performed.
Complete Eradication of Tumors in G1NaGrpTk Transduced Cells. To directly compare the therapeutic efficacy of the G1NaGrpTk vector with G1TkSvNa, B/C10ME clones transduced with the respective retroviral constructs were injected subcutaneously at a dose of 2×10^7 cells per BALB/c mouse. As controls, the parental, non-transduced cells were also injected. Tumors were palpable after 12 days of injection. At day 21, when the average tumor diameter reached about 2 cm, GCV was administered. […]

## Nc1nc(O)c2ncn(COC(CO)CO)c2n1 [GCV, ganciclovir]
  tumor growth following GCV treatment: tumors continued to grow at various rates
